Experimental data published in EP0386951A2 (ELI LILLY AND COMPANY, priority 1989, dated 1990).

Experiments:
[1] = Stability of daptomycin reconstituted in buffered diluents and diluted in 5% dextrose (appearance of degradation products); assay type: physicochemical; settings: dissolved in 5% dextrose solution
From the text: The effectiveness of the buffered diluents in suppressing the appearance of degradation products is shown below in Table 2: Table 2: […]

[2] = Stability of daptomycin reconstituted to 1 mg/ml in normal saline or 5% dextrose, stored at room and refrigerated temperature; assay type: physicochemical; settings: solutions of daptomycin and dextrose, 24 h
Protocol: Next, the solutions were stored at room temperature (approximately 25°C) and refrigerated temperatures and assayed at the 6 h and 24 h timepoints.

Substance: daptomycin
- degradation ([1]; 24 h at 25°C): 15-20%
- degradation ([1]; 7 days at 5°C): 15-20%
- potency loss ([2]; refrigerated temperature): about 5%
- potency loss ([2]; room temperature): 17%
